Where a SMILES comes first, the peptide text is derived from it. Bridges are numbered along the chain shown (N, C = ends). Roman numbers before positions name the chains, in order.
System: pustulan (β-1,6-glucan polymer), C. albicans cell wall component
Test: Binding/radial diffusion assay with pustulan
Type: cell-based
Conditions: peptide final 180 μg/ml, pre-incubated 2 h at 37°C, radial diffusion assay
Experimental: The candidacidal activities of the peptides were tested by using standard microdilution plate assays, radial diffusion assays and broth dilution assay slightly modified from the procedure recommended by the National Committee for Clinical Laboratory Standards. For the candidacidal assays, C. albicans cells were grown in YPD medium and washed twice with 10 mM sodium phosphate buffer (NaPB; Na2HPO4, NaH2PO4, pH 7.4). The cells (1 x 10^6) were then mixed with different concentrations of peptides and incubated at 30°C with constant shaking for 60 min. For energy depletion experiments, cells were pre-incubated with 10 mM NaPB containing 5 mM NaN3 at 30°C for 60 min before the addition of peptides. The cell suspensions were diluted in 10 mM NaPB and aliquots of 500 cells were spread onto YPD agar plates then incubated for 24 h at 30°C to visualize the surviving colonies. Cell survival was expressed as a percentage of that for the control, and the loss of viability was calculated as [1 x (number of colonies from peptide-treated cells/number of colonies from control cells)] x 100. […] The clear-zone diameters were measured to the nearest 0.1 mm and graphed against the peptide concentration. […] The numbers of yeasts were counted using a hemocytometer. […] The antifungal activities were evaluated after 24 h of incubation at 30°C by the observation of visible turbidity the wells. […]

SMILES | pustulan concentration at which activity began to decrease [mg/mL]
CC(C)C[C@H](NC(=O)[C@@H](N)Cc1c[nH]c2ccccc12)C(=O)N[C@@H](CC(N)=O)C(=O)N[C@@H](C)C(=O)N[C@@H](CCCCN)C(=O)N[C@@H](CCCNC(=N)N)C(=O)N[C@@H](Cc1c[nH]cn1)C(=O)N[C@@H](Cc1c[nH]cn1)C(=O)NCC(=O)N[C@@H](Cc1ccc(O)cc1)C(=O)N[C@@H](CCCCN)C(=O)N[C@@H](CSSC[C@H](NC(=O)[C@H](CCCCN)NC(=O)[C@H](Cc1ccc(O)cc1)NC(=O)CNC(=O)[C@H](Cc1c[nH]cn1)NC(=O)[C@H](Cc1c[nH]cn1)NC(=O)[C@H](CCCNC(=N)N)NC(=O)[C@H](CCCCN)NC(=O)[C@H](C)NC(=O)[C@H](CC(N)=O)NC(=O)[C@H](CC(C)C)NC(=O)[C@@H](N)Cc1c[nH]c2ccccc12)C(=O)N[C@@H](CCCCN)C(=O)N[C@@H](Cc1ccccc1)C(=O)N[C@@H](Cc1c[nH]cn1)C(N)=O)C(=O)N[C@@H](CCCCN)C(=O)N[C@@H](Cc1ccccc1)C(=O)N[C@@H](Cc1c[nH]cn1)C(N)=O [di-WP2] (I: H-WLNAKRHHGYKCKFH-NH2 / II: H-WLNAKRHHGYKCKFH-NH2; disulfide I:12-II:12 (inferred); N-terminus assumed) | 20
CC(C)C[C@H](NC(=O)CNC(=O)[C@H](Cc1c[nH]cn1)NC(=O)[C@H](Cc1c[nH]cn1)NC(=O)[C@H](CC(C)C)NC(=O)[C@H](CC(C)C)NC(=O)[C@H](C)NC(=O)[C@H](CC(N)=O)NC(=O)[C@H](CC(C)C)NC(=O)[C@@H](N)Cc1c[nH]c2ccccc12)C(=O)N[C@@H](CC(N)=O)C(=O)N[C@@H](CSSC[C@H](NC(=O)[C@H](CC(N)=O)NC(=O)[C@H](CC(C)C)NC(=O)CNC(=O)[C@H](Cc1c[nH]cn1)NC(=O)[C@H](Cc1c[nH]cn1)NC(=O)[C@H](CC(C)C)NC(=O)[C@H](CC(C)C)NC(=O)[C@H](C)NC(=O)[C@H](CC(N)=O)NC(=O)[C@H](CC(C)C)NC(=O)[C@@H](N)Cc1c[nH]c2ccccc12)C(=O)N[C@@H](C)C(=O)N[C@@H](CCCCN)C(=O)NCC(=O)N[C@H](C(=O)N[C@@H](CC(C)C)C(=O)N[C@@H](C)C(N)=O)C(C)C)C(=O)N[C@@H](C)C(=O)N[C@@H](CCCCN)C(=O)NCC(=O)N[C@H](C(=O)N[C@@H](CC(C)C)C(=O)N[C@@H](C)C(N)=O)C(C)C [di-18Hc, reference compound] (I: H-WLNALLHHGLNCAKGVLA-NH2 / II: H-WLNALLHHGLNCAKGVLA-NH2; disulfide I:12-II:12 (inferred); N-terminus assumed) | 20
